Results as given in patent US9820981B2, “Treatment of retinopathy of prematurity (ROP)” (The Cleveland Clinic Foundation, priority 2013, dated 2017).

Legend:
[1] = tested on: oxygen-induced retinopathy (OIR); test: Oxygen-induced retinopathy (OIR) mouse model, retinal flatmounts; type: in vivo; settings: for reduction of capillary dropout in retinal flatmounts (percent avascular area of total retinal area): P17, each at optimal dose (10 μg/g FG-4592, 200 μg/g DMOG) i.p. at P6, P8, P10
Description: The PBS-treated pup has an ischemic, posterior retina compared to the FG-4592-treated pup. Pups were treated with intraperitoneal injection of 10 μg/g body weight FG-4592 at P6, P8, and P10 while in 75% hyperoxia. At P12, pups were removed to room air with their nursing mothers and sacrificed at P17. Eyes were removed and fixed for 15 minutes in fresh 4% paraformaldehyde (PFA) before isolating whole retina, permeabilizing and lectin staining, then flat mounting for fluorescence microscopy.
An automated computer program (ImagePro version 7.0) measures capillary dropout and neovascular tufting seen in 3B.
The mouse model of ROP used in this study is based on a well-established protocol by Smith et al. (L. E. Smith, E. Wesolowski, A. McLellan, S. K. Kostyk, R. D'Amato, R. Sullivan, and P. A. D'Amore. Oxygen-induced retinopathy in the mouse. Investigative ophthalmology & visual science. 35:101-111 (1994)) that involves exposing pups and their nursing mothers to 5 days of hyperoxia (75% oxygen) during P7 through P12 in the wild type C57BL6 (WT) pups. A Plexiglas incubator with an oxygen sensor and feedback system ProOx (Biospherix, Lacona, N.Y.) was used to ensure continuous hyperoxia. Animals were injected intraperitoneally with FG-4592 (10 μg/g), DMOG (200 μg/g) or control PBS in the equivalent volume at P6, P8, and P10. […] Flatmount preparation and lectin (GS-IB4-Alexa568, Life Technologies, Grand Island, N.Y.) staining was performed essentially as described elsewhere (K. M. Connor, N. M. Krah, R. J. Dennison, C. M. Aderman, J. Chen, K. I. Guerin, P. Sapieha, A. Stahl, K. L. Willett, and L. E. Smith. Quantification of oxygen-induced retinopathy in the mouse: a model of vessel loss, vessel regrowth and pathological angiogenesis. Nat Protoc. 4:1565-1573 (2009); A. Stahl, K. M. Connor, P. Sapieha, K. L. Willett, N. M. Krah, R. J. Dennison, J. Chen, K. I. Guerin, and L. E. Smith. Computer-aided quantification of retinal neovascularization. Angiogenesis. 12:297-301 (2009)). Retinas were dissected using four radial cuts, and flatmounted onto glass slides with Vectashield (Vector Labs, Burlingame, Calif.). All animal procedures were performed in accordance with the Cleveland Clinic Institutional Animal Care and Use Committee.
For quantitative analysis of avascular area, vascular tortuosity, and tufting, retinal images were batch processed using a customized macro and algorithms generated in Image-Pro Plus 7.0 (Media Cybernetics, Silver Spring, Md.) as previously described (J. E. Sears, G. Hoppe, Q. Ebrahem, and B. Anand-Apte. Prolyl hydroxylase inhibition during hyperoxia prevents oxygen-induced retinopathy. Proceedings of the National Academy of Sciences of the United States of America. 105:19898-19903 (2008)).
FG-4592 was solubilized as a stock solution of […] in DMSO, which was then diluted 50 times in PBS to a concentration of 1 μg/microliter to facilitate a final dose of 10 μg/g body weight of each mouse pup. Three injections were administered during the hyperoxic phase of oxygen-induced retinopathy (OIR) at 48-hour intervals.

EPO = test: Serum EPO ELISA; type: in vivo; settings: P8 mouse pups
Description: (§1) Wild-type (WT) and HIF-1α knock-out (KO) P8 mouse pups were injected with 10 μg/g FG-4592 and, following indicated periods of time, the pups were anesthetized by ketamine/xylazine, blood was drawn using heparinized 27-gauge needle and syringe. Serum was diluted 1:10 (EPO), 1:5 (VEGF) or 1:100 (ANGPTL-3) with sample diluent provided by the manufacturer (R&D Systems, Minneapolis, Minn.). Spectrophotometric measurements of EPO, VEGF, and ANGPTL-3 quantities were obtained according to the manufacturer's instructions.

VEGF = test: Serum VEGF ELISA; type: in vivo; settings: P8 mouse pups
Description: as §1

[2] = tested on: angiopoietin-like protein 3 (ANGPTL-3); test: Serum ANGPTL-3 ELISA; type: in vivo; settings: P8 mouse pups
Description: as §1

[3] = tested on: Hepatic EPO, VEGFA and ANGPTL3 mRNA; test: Reverse transcription and quantitative PCR of hepatic mRNA; type: in vivo, mouse; settings: data not shown
Description: Tissue from liver, kidney, brain and retina were placed into 1 mL of RNAlater reagent (Qiagen, Germantown, Md.) and stored at −80° C. Total RNA was extracted using RNeasy kit (Qiagen) and measured using NanoDrop and standard spectrophotometric parameters. One μg of total RNA from each sample was retrotranscripted to cDNA using QuantiTect Reverse Transcription Kit (Qiagen). One μl of cDNA samples was used as template for amplification reactions carried out with the QuantiTect SYBR Green PCR kit (Qiagen) following the manufacturer's instructions. PCR amplifications were performed in a 7900HT Fast Real-Time PCR system (Applied Biosystems, Foster City, Calif.) and quantitative PCR data analysis was performed with RQ Managed software (Applied Biosystems).

HIF-1α = test: Western blot of HIF-1α protein in organ lysates; type: in vivo; settings: mouse pups, versus PBS
Description: Mice were sacrificed by ketamine/xylazine overdose, organs collected and placed in RIPA buffer (200 μL per 50 mg of tissue, pH 7.0) containing protease inhibitors Complete (Roche, Indianapolis, Ind.), disrupted using a tight fitting microtube pestle, and centrifuged to remove particulate matter. A Pierce BCA protein assay (Thermo Scientific, Rockford, Ill.) was used to measure protein concentrations. Lysates were subjected to 4-20% SDS-PAGE and electro-transferred to PVDF membranes for immunoblotting. Membranes were blocked with 5% nonfat dried milk in Tris-buffered saline and 0.1% Tween-20, then probed with anti-HIF-1α, antibody (Cayman Chemical, Ann Arbor, Mich.) overnight. After washing and secondary antibody hybridization, membranes were exposed by chemiluminescence (Western Lighting, PerkinElmer, Waltham, Mass.).
FIG. 5A is images of Western blots detecting HIF-1α protein in organ lysates derived from pups treated with PBS or FG-4592, and FIG. 5B is a graph of integrated optical density of the immunoblots shown in FIG. 5A.

[4] = tested on: serum erythropoietin (Epo), a HIF-regulated gene product; test: Immunoblot of serum erythropoietin (Epo) response after single intraperitoneal injection; type: in vivo; settings: P8 mouse pups, serum 6 hours after a single intraperitoneal injection
[5] = tested on: HIF prolyl hydroxylase (PHD); test: In vivo localization of PHD inhibition in luc-ODD mouse (luminescence imaging, luciferase activity in organ lysates); settings: for localization of luminescence, whole animal imaging: luc-ODD mouse
Description: Gt(ROSA)26Sor^tml(Luc)Kael (luc-ODD) mice were obtained from the Jackson Laboratory (Bar Harbor, Me.). Pups were given i.p. injections of 10 μg/g FG-4592 at indicated periods of time prior to live imaging. Mice were injected with mixture of 100 mg/kg ketamine, 10 mg/kg xylazine and 50 mg/kg luciferin and placed in a light-tight chamber connected to a supercooled, charge-coupled camera. Photons were collected for 15 seconds using IVI 100 Imaging System (PerkinElmer, Waltham, Mass.).
The luc-ODD mouse has a transgene comprised of luciferase fused to the ODD and, therefore, serves as a reporter gene in vivo of where hydroxylation of the ODD is inhibited, observed as luminescence in tissue lysates and whole animal imaging.
Quantitation of the effect shown in FIG. 4A supports the specificity of this effect in tissue lysates.

[6] = murine OIR model, 10 eyes each group

COC(=O)CNC(=O)C(=O)OC [DMOG, dimethyl oxaloylglycine]
reduction of capillary dropout in retinal flatmounts (percent avascular area of total retinal area) ([1]; versus PBS): 3 fold

Cc1nc(C(=O)NCC(=O)O)c(O)c2ccc(Oc3ccccc3)cc12 [FG-4592]
circulating (serum) levels of EPO (EPO; 10 μg/g FG-4592 i.p.): marked increase
time of peak EPO production after treatment (EPO; time-course study): 3 h
serum levels of VEGF (VEGF; 10 μg/g FG-4592 i.p.): moderate but statistically significant increase
time of peak VEGF levels after treatment (VEGF; time-course study): 6 h
elevation of ANGPTL-3 in serum ([2]; 10 μg/g FG-4592 i.p.): 6 fold
time course of ANGPTL-3 induction ([2]; time-course study): sustained induction, even 24 hours after FG-4592 treatment
Hepatic EPO, VEGFA and ANGPTL3 mRNA levels and kinetics [3]: mirrored their corresponding serum protein concentrations
preservation of retinal vessels in retinal flatmounts ([1]; 10 μg/g i.p. at P6, P8, P10 in 75% hyperoxia, sacrificed P17, versus PBS): preservation of retinal vessels
benefit in direct comparison with DMOG ([1]; OIR model, 10 μg/g FG-4592 versus 200 μg/g DMOG): at least the same benefit as DMOG, with a trend to superiority of FG-4592
ischemic, hypoxic retina (isolectin and Hypoxyprobe staining) ([1]; P17, versus sham PBS injection): decrease in ischemic, hypoxic retina at P17
reduction of capillary dropout in retinal flatmounts (percent avascular area of total retinal area) ([1]; versus PBS): 3 fold
rate of decrease of central avascular region (retinovascular repair) ([1]; flatmounts at P12, P15, P17, treated versus PBS): identical rates of decrease of this region in treated and untreated animals
inhibition of capillary drop-out compared with DMOG [1, 6]: inhibits capillary drop-out better than DMOG
inhibition of neovascularization subsequent to capillary drop-out compared with DMOG [1, 6]: inhibits neovascularization subsequent to capillary drop-out better than DMOG
organ specific stabilization of HIF-1α protein (integrated optical density) (HIF-1α): maximal increase in HIF-1α in liver and kidney lysates
potency relative to DMOG, quantification of serum Epo immunoblot [4]: approximately fifteen times more potent than DMOG
organ specificity, luciferase activity (RLU/mg tissue protein) in organ lysates ([5]; luc-ODD mice, s.c. or i.p. injection, versus PBS): specificity of FG-4592 for liver and kidney
localization of luminescence, whole animal imaging ([5]; i.p. injection): liver- and kidney-specific luminescence
localization of luminescence, whole animal imaging ([5]; s.c. injection): liver- and kidney-specific luminescence
duration of HIF PHD inhibition ([5]; single intraperitoneal injection, time course in kidney and lung): at least 24 hours
